Laboratory results published in ChEMBL document CHEMBL3217491, “Design, synthesis and biological evaluation of imidazopyridine/pyrimidine-chalcone derivatives as potential anticancer agents” (2010).
The source made the active and inactive calls. The calls are words filed in the database; no cut-off is given here.

Assays:
[1] = tested on: MCF7; test: Induction of apoptosis in human MCF7 cells expressing P21 promoter -145/+8 with luciferase gene assessed as upregulation of p21 protein expression at 4 uM by Western blot analysis relative to control; format: functional, cell-based
[2] = tested on: MCF7; test: Growth inhibition of human MCF7 cells assessed as cell viability at 4 uM after 24 hrs by MTT assay; format: functional, cell-based
[3] = tested on: MCF7; test: Cell cycle arrest in human MCF7 cells assessed as accumulation at S phase at 4 uM after 24 hrs by propidium iodide staining-based flow cytometry (reference value: 20.17%); format: functional
[4] = tested on: MCF7; test: Cell cycle arrest in human MCF7 cells assessed as accumulation at G0/G1 phase at 4 uM after 24 hrs by propidium iodide staining-based flow cytometry (reference value: 64.04%); format: functional
[5] = tested on: MCF7; test: Cell cycle arrest in human MCF7 cells assessed as accumulation at G2/M phase at 4 uM after 24 hrs by propidium iodide staining-based flow cytometry (reference value: 15.79%); format: functional
[6] = tested on: SK-MEL-5; test: Growth inhibition of human SK-MEL-5 cells after 48 hrs by SRB assay; format: functional; settings: SK-MEL-5, 48 h
[7] = Growth inhibition of human MOLT4 cells after 48 hrs by SRB assay; format: functional; settings: MOLT-4, 48 h
[8] = tested on: SW-620; test: Growth inhibition of human SW620 cells after 48 hrs by SRB assay; format: functional; settings: SW-620, 48 h
[9] = tested on: 786-0; test: Growth inhibition of human 786-0 cells after 48 hrs by SRB assay; format: functional; settings: 786-0, 48 h
[10] = Growth inhibition of human UO31 cells after 48 hrs by SRB assay; format: functional; settings: UO-31, 48 h
[11] = tested on: HL-60(TB); test: Growth inhibition of human HL-60(TB) cells after 48 hrs by SRB assay; format: functional; settings: HL-60, 48 h
[12] = tested on: CCRF-CEM; test: Growth inhibition of human CCRF-CEM cells after 48 hrs by SRB assay; format: functional
[13] = tested on: IGROV-1; test: Growth inhibition of human IGROV1 cells after 48 hrs by SRB assay; format: functional; settings: IGROV-1, 48 h
[14] = tested on: MDA-MB-468; test: Growth inhibition of human MDA-MB-468 cells after 48 hrs by SRB assay; format: functional; settings: MDA-MB-468, 48 h
[15] = Growth inhibition of human NCI-ADR-RES cells after 48 hrs by SRB assay; format: functional
[16] = tested on: U-251; test: Growth inhibition of human U251 cells after 48 hrs by SRB assay; format: functional; settings: U-251, 48 h
[17] = Growth inhibition of human UACC62 cells after 48 hrs by SRB assay; format: functional; settings: UACC-62, 48 h
[18] = tested on: M14; test: Growth inhibition of human M14 cells after 48 hrs by SRB assay; format: functional; settings: M14, 48 h
[19] = tested on: NCI-H460; test: Growth inhibition of human NCI-H460 cells after 48 hrs by SRB assay; format: functional; settings: NCI-H460, 48 h
[20] = Growth inhibition of human SF539 cells after 48 hrs by SRB assay; format: functional; settings: SF-539, 48 h
[21] = tested on: MDA-MB-231; test: Growth inhibition of human MDA-MB-231 cells after 48 hrs by SRB assay; format: functional; settings: MDA-MB-231, 48 h
[22] = tested on: SNB-19; test: Growth inhibition of human SNB19 cells after 48 hrs by SRB assay; format: functional; settings: SNB-19, 48 h
[23] = Growth inhibition of human UACC257 cells after 48 hrs by SRB assay; format: functional; settings: UACC-257, 48 h
[24] = Growth inhibition of human BT549 cells after 48 hrs by SRB assay; format: functional; settings: BT-549, 48 h
[25] = tested on: SK-MEL-2; test: Growth inhibition of human SK-MEL-2 cells after 48 hrs by SRB assay; format: functional; settings: SK-MEL-2, 48 h
[26] = tested on: HCT-116; test: Growth inhibition of human HCT116 cells after 48 hrs by SRB assay; format: functional; settings: HCT-116, 48 h
[27] = Growth inhibition of human LOXIMVI cells after 48 hrs by SRB assay; format: functional; settings: LOX IMVI
[28] = Growth inhibition of human HCC2998 cells after 48 hrs by SRB assay; format: functional; settings: HCC 2998, 48 h
[29] = tested on: K562; test: Growth inhibition of human K562 cells after 48 hrs by SRB assay; format: functional; settings: K562, 48 h
[30] = tested on: KM12; test: Growth inhibition of human KM12 cells after 48 hrs by SRB assay; format: functional; settings: KM12, 48 h
[31] = Growth inhibition of human Hs578T cells after 48 hrs by SRB assay; format: functional; settings: Hs-578T
[32] = tested on: HOP-62; test: Growth inhibition of human HOP62 cells after 48 hrs by SRB assay; format: functional; settings: HOP-62, 48 h
[33] = tested on: COLO 205; test: Growth inhibition of human COLO205 cells after 48 hrs by SRB assay; format: functional; settings: COLO 205, 48 h
[34] = tested on: NCI-H23; test: Growth inhibition of human NCI-H23 cells after 48 hrs by SRB assay; format: functional; settings: NCI-H23, 48 h
[35] = tested on: RPMI-8226; test: Growth inhibition of human RPMI8226 cells after 48 hrs by SRB assay; format: functional; settings: RPMI-8226, 48 h
[36] = Growth inhibition of human OVCAR5 cells after 48 hrs by SRB assay; format: functional; settings: OVCAR-5, 48 h
[37] = tested on: Malme-3M; test: Growth inhibition of human MALME-3M cells after 48 hrs by SRB assay; format: functional
[38] = tested on: SN12C; test: Growth inhibition of human SN12C cells after 48 hrs by SRB assay; format: functional
[39] = tested on: NCI-H522; test: Growth inhibition of human NCI-H522 cells after 48 hrs by SRB assay; format: functional; settings: NCI-H522, 48 h
[40] = tested on: ACHN; test: Growth inhibition of human ACHN cells after 48 hrs by SRB assay; format: functional
[41] = tested on: PC-3; test: Growth inhibition of human PC3 cells after 48 hrs by SRB assay; format: functional; settings: PC-3, 48 h
[42] = tested on: HT-29; test: Growth inhibition of human HT-29 cells after 48 hrs by SRB assay; format: functional; settings: HT-29, 48 h
[43] = Growth inhibition of human HOP92 cells after 48 hrs by SRB assay; format: functional; settings: HOP-92, 48 h
[44] = tested on: SK-OV-3; test: Growth inhibition of human SKOV3 cells after 48 hrs by SRB assay; format: functional; settings: SK-OV-3, 48 h
[45] = tested on: TK-10; test: Growth inhibition of human TK10 cells after 48 hrs by SRB assay; format: functional; settings: TK-10, 48 h
[46] = tested on: SK-MEL-28; test: Growth inhibition of human SK-MEL-28 cells after 48 hrs by SRB assay; format: functional; settings: SK-MEL-28, 48 h
[47] = tested on: A498; test: Growth inhibition of human A498 cells after 48 hrs by SRB assay; format: functional; settings: A498, 48 h
[48] = tested on: SR; test: Growth inhibition of human SR cells after 48 hrs by SRB assay; format: functional
[49] = Growth inhibition of human EKVX cells after 48 hrs by SRB assay; format: functional
[50] = tested on: MDA-MB-435; test: Growth inhibition of human MDA-MB-435 cells after 48 hrs by SRB assay; format: functional; settings: MDA-MB-435, 48 h
[51] = tested on: CAKI-1; test: Growth inhibition of human Caki1 cells after 48 hrs by SRB assay; format: functional; settings: CAKI-1, 48 h
[52] = tested on: T47D; test: Growth inhibition of human T47D cells after 48 hrs by SRB assay; format: functional
[53] = Growth inhibition of human HCT15 cells after 48 hrs by SRB assay; format: functional; settings: HCT-15, 48 h
[54] = tested on: NCI-H322M; test: Growth inhibition of human NCI-H322M cells after 48 hrs by SRB assay; format: functional
[55] = tested on: SF-268; test: Growth inhibition of human SF268 cells after 48 hrs by SRB assay; format: functional; settings: SF-268, 48 h
[56] = Growth inhibition of human OVCAR8 cells after 48 hrs by SRB assay; format: functional; settings: OVCAR-8, 48 h
[57] = tested on: A549; test: Growth inhibition of human A549 cells after 48 hrs by SRB assay; format: functional; settings: A549, 48 h
[58] = Growth inhibition of human SF295 cells after 48 hrs by SRB assay; format: functional; settings: SF-295, 48 h
[59] = tested on: NCI-H226; test: Growth inhibition of human NCI-H226 cells after 48 hrs by SRB assay; format: functional; settings: NCI-H226, 48 h
[60] = Growth inhibition of human RXF393 cells after 48 hrs by SRB assay; format: functional; settings: RXF 393, 48 h
[61] = tested on: SNB-75; test: Growth inhibition of human SNB75 cells after 48 hrs by SRB assay; format: functional; settings: SNB-75, 48 h
[62] = Growth inhibition of human OVCAR3 cells after 48 hrs by SRB assay; format: functional; settings: OVCAR-3, 48 h
[63] = Growth inhibition of human OVCAR4 cells after 48 hrs by SRB assay; format: functional; settings: OVCAR-4, 48 h
[64] = tested on: DU-145; test: Growth inhibition of human DU145 cells after 48 hrs by SRB assay; format: functional; settings: DU-145, 48 h
[65] = tested on: MCF7; test: Growth inhibition of human MCF7 cells after 48 hrs by SRB assay; format: functional; settings: MCF7, 48 h

## COc1cccc2c1C(=O)c1c(O)c3c(c(O)c1C2=O)C[C@@](O)(C(=O)CO)C[C@@H]3O[C@H]1C[C@H](N)[C@H](O)[C@H](C)O1 [DOXORUBICIN]
[1]
  Activity: Active
[2]
  inhibition: Active
[3]
  Activity: 4%
[4]
  Activity: 94.85%
[5]
  Activity: 1.15%

## COc1cc(C(=O)/C=C/c2c(-c3ccc(F)cc3)nc3ncccn23)cc(OC)c1OC
[6]
  GI50: 2220 nM
[7]
  GI50: 3750 nM
[8]
  GI50: 2090 nM
[9]
  GI50: 2760 nM
[10]
  GI50: 730 nM
[11]
  GI50: 3330 nM
[12]
  GI50: 4050 nM
[13]
  GI50: 1930 nM
[14]
  GI50: 2750 nM
[15]
  GI50: 1580 nM
[16]
  GI50: 1680 nM
[17]
  GI50: 1740 nM
[18]
  GI50: 2160 nM
[19]
  GI50: 1590 nM
[20]
  GI50: 1550 nM
[21]
  GI50: 2990 nM
[22]
  GI50: 3120 nM
[23]
  GI50: 3730 nM
[24]
  GI50: 1800 nM
[25]
  GI50: 2380 nM
[26]
  GI50: 1530 nM
[27]
  GI50: 1570 nM
[28]
  GI50: 1770 nM
[29]
  GI50: 3030 nM
[30]
  GI50: 1690 nM
[31]
  GI50: 2010 nM
[2]
  inhibition: Active
[32]
  GI50: 3120 nM
[33]
  GI50: 1700 nM
[3]
  Activity: 21.89%
[34]
  GI50: 1580 nM
[35]
  GI50: 2560 nM
[36]
  GI50: 2460 nM
[37]
  GI50: 2840 nM
[38]
  GI50: 2260 nM
[39]
  GI50: 2870 nM
[40]
  GI50: 2210 nM
[41]
  GI50: 4350 nM
[42]
  GI50: 2520 nM
[43]
  GI50: 1770 nM
[44]
  GI50: 2640 nM
[45]
  GI50: 3250 nM
[46]
  GI50: 3680 nM
[47]
  GI50: 2200 nM
[4]
  Activity: 74.16%
[48]
  GI50: 2280 nM
[49]
  GI50: 2710 nM
[50]
  GI50: 2360 nM
[51]
  GI50: 2060 nM
[52]
  GI50: 2090 nM
[53]
  GI50: 2110 nM
[54]
  GI50: 2070 nM
[5]
  Activity: 3.95%
[55]
  GI50: 1900 nM
[56]
  GI50: 2690 nM
[57]
  GI50: 3340 nM
[58]
  GI50: 2430 nM
[59]
  GI50: 3080 nM
[60]
  GI50: 1440 nM
[61]
  GI50: 2390 nM
[62]
  GI50: 1400 nM
[63]
  GI50: 2930 nM
[64]
  GI50: 1630 nM
[65]
  GI50: 1610 nM
